# Where two headings read alike, the source gives them in different places.
# What was measured:
# C. auris B11245 [1] = format: cell-based, Candida auris; conditions: RPMI1640, 37 °C, 48 h, CAS: paradoxical growth; for MIC of antifungal in combination with KKOO: MIC = <20% growth; for MIC of antifungal in combination with KKOO-NH2: MIC = well with <20% growth
# Description: (§1) All microdilution assays with fungi were carried out in accordance with CLSI protocols from M27 for yeasts and M38 for filamentous fungi, respectively, unless otherwise specified.[64],[65] Briefly, 96-well plates were charged with RPMI1640 media, with operating volume in the first column, 200 μL, and half operating volume, 100 μL, in the remaining wells. Drug stock solution in DMSO was aliquoted into the first well in each row. Half of the volume in the dosed well was serially diluted 2-fold until column 11. Column 11 was used as the negative growth control, and column 12 was used as the positive growth control. ON yeast cultures in YPD were washed twice in DD-H2O, resuspended in PBS, and adjusted to 5000 cfu/mL in RPMI. The 96-well plate was inoculated with 100 μL aliquots of cell suspension per well. Plates were incubated at 37 °C for 2 days.
# (§2) To assess drug synergy, the initial media charged to the plate contained the peptide at twice the final operating concentration; the remaining processing steps were identical to the MIC experiment. Upon addition of 100 μL of inoculant, the final operating concentration was achieved. Control MIC plates were prepared alongside drug synergy plates to account for the day-to-day variability in any individual MIC. FIC index is computed using eq 1. All MIC assays and drug synergy assays were completed with two technical replicates per 96-well plate and a minimum of two biological replicates per drug combination. If a difference in MIC between the two technical replicates on the plate were observed, only the higher concentration was reported as the MIC to reduce the possibility of type 1 error (false positive) [drawing 1] 1
# Cn MRL862 = format: cell-based, Cryptococcus neoformans; conditions: RPMI1640, 37 °C, 48 h
# Description: as §1, §2
# C. albicans SC5413 [2] = test: microbe, parasite or virus in culture; format: cell-based, Candida albicans; conditions: Candida albicans, SC5413; compound alone; RPMI1640, 37 °C, 48 h; read-out: MIC
# Description: as §1
# A. fumigatus AF293 = test: microbe, parasite or virus in culture; format: cell-based, Aspergillus fumigatus; conditions: Aspergillus fumigatus, AF293; compound alone; RPMI1640, 37 °C, 48 h; * = paradoxical growth observed (CAS); read-out: MIC
# Description: as §1
# C. auris B11245 [3] = test: microbe, parasite or virus in culture; format: cell-based, Candida auris; conditions: Candidozyma auris, B11245; compound alone; RPMI1640, 37 °C, 48 h; * = paradoxical growth observed (CAS); read-out: MIC
# Description: as §1
# C. albicans SC5413 [4] = format: cell-based, Candida albicans; conditions: RPMI1640, 37 °C, 48 h; for MIC of antifungal in combination with KKOO: azole MICs unclear (intermediate phenotype); for MIC of antifungal in combination with KKOO-NH2: azole MICs could not be determined (intermediate phenotype)
# Description: as §1, §2
# Cg FKS1 S629P = test: Drug synergy (MIC in peptide-supplemented media); format: cell-based, Candida glabrata; conditions: RPMI1640, 37 °C, 48 h
# Description: as §1, §2
# Cg FKS2 S663P = test: Drug synergy (MIC in peptide-supplemented media); format: cell-based, Candida glabrata; conditions: RPMI1640, 37 °C, 48 h
# Description: as §1, §2
structure (smiles),measurement,setting,value
"C[C@@H]1[C@H](O)[C@@H](C)/C=C/C=C/C=C/C=C/C=C/C=C/C=C/[C@H](O[C@@H]2O[C@H](C)[C@@H](O)[C@H](N)[C@@H]2O)C[C@@H]2O[C@](O)(C[C@@H](O)C[C@@H](O)[C@H](O)CC[C@@H](O)C[C@@H](O)CC(=O)O[C@H]1C)C[C@H](O)[C@H]2C(=O)O [AMB, amphotericin B]",MIC of antifungal in combination with KKOO,C. auris B11245 [1]; +0 μg/mL KKOO (control),1 µg/mL
same,MIC of antifungal in combination with KKOO-NH2,C. auris B11245 [1]; +0 μg/mL KKOO-NH2 (control),1 µg/mL
same,MIC of antifungal in combination with KKOO-NH2,C. auris B11245 [1]; +1 μg/mL KKOO-NH2,0.5 µg/mL
same,MIC of antifungal in combination with KKOO,C. auris B11245 [1]; +1 μg/mL KKOO,0.5 µg/mL
same,MIC of antifungal in combination with KKOO-NH2,C. auris B11245 [1]; +2 μg/mL KKOO-NH2,0.5 µg/mL
same,MIC of antifungal in combination with KKOO,C. auris B11245 [1]; +2 μg/mL KKOO,0.5 µg/mL
same,MIC of antifungal in combination with KKOO-NH2,C. auris B11245 [1]; +4 μg/mL KKOO-NH2,0.25 µg/mL
same,MIC of antifungal in combination with KKOO,C. auris B11245 [1]; +4 μg/mL KKOO,0.25 µg/mL
same,MIC of antifungal in combination with KKOO,Cn MRL862; +0 μg/mL KKOO (control),0.25 µg/mL
same,MIC of antifungal in combination with KKOO-NH2,Cn MRL862; +0 μg/mL KKOO-NH2 (control),0.25 µg/mL
same,MIC of antifungal in combination with KKOO-NH2,Cn MRL862; +1 μg/mL KKOO-NH2,0.125 µg/mL
same,MIC of antifungal in combination with KKOO,Cn MRL862; +1 μg/mL KKOO,0.125 µg/mL
same,MIC of antifungal in combination with KKOO-NH2,Cn MRL862; +2 μg/mL KKOO-NH2,0.031 µg/mL
same,MIC of antifungal in combination with KKOO,Cn MRL862; +2 μg/mL KKOO,0.031 µg/mL
same,MIC of antifungal in combination with KKOO-NH2,Cn MRL862; +4 μg/mL KKOO-NH2,0.016 µg/mL
same,MIC of antifungal in combination with KKOO,Cn MRL862; +4 μg/mL KKOO,0.016 µg/mL
same,MIC,C. albicans SC5413 [2],1 µg/mL
same,MIC,A. fumigatus AF293,1 µg/mL
same,MIC,C. auris B11245 [3],1 µg/mL
same,MIC of antifungal in combination with KKOO,C. albicans SC5413 [4]; +0 μg/mL KKOO (control),1 µg/mL
same,MIC of antifungal in combination with KKOO-NH2,C. albicans SC5413 [4]; +0 μg/mL KKOO-NH2 (control),1 µg/mL
same,MIC of antifungal in combination with KKOO-NH2,C. albicans SC5413 [4]; +1 μg/mL KKOO-NH2,0.5 µg/mL
same,MIC of antifungal in combination with KKOO,C. albicans SC5413 [4]; +1 μg/mL KKOO,0.5 µg/mL
same,MIC of antifungal in combination with KKOO-NH2,C. albicans SC5413 [4]; +2 μg/mL KKOO-NH2,0.25 µg/mL
same,MIC of antifungal in combination with KKOO,C. albicans SC5413 [4]; +2 μg/mL KKOO,0.25 µg/mL
same,MIC of antifungal in combination with KKOO-NH2,C. albicans SC5413 [4]; +4 μg/mL KKOO-NH2,0.25 µg/mL
same,MIC of antifungal in combination with KKOO,C. albicans SC5413 [4]; +4 μg/mL KKOO,0.125 µg/mL
same,MIC of antifungal in combination with KKOO,C. albicans SC5413 [4]; +8 μg/mL KKOO,0.125 µg/mL
same,MIC of antifungal in combination with KKOO,Cg FKS1 S629P; +0 μg/mL KKOO (control),1 µg/mL
same,MIC of antifungal in combination with KKOO-NH2,Cg FKS1 S629P; +0 μg/mL KKOO-NH2 (control),0.5 µg/mL
same,MIC of antifungal in combination with KKOO-NH2,Cg FKS1 S629P; +1 μg/mL KKOO-NH2,0.25 µg/mL
same,MIC of antifungal in combination with KKOO,Cg FKS1 S629P; +1 μg/mL KKOO,0.5 µg/mL
same,MIC of antifungal in combination with KKOO-NH2,Cg FKS1 S629P; +2 μg/mL KKOO-NH2,0.125 µg/mL
same,MIC of antifungal in combination with KKOO,Cg FKS1 S629P; +2 μg/mL KKOO,0.25 µg/mL
same,MIC of antifungal in combination with KKOO-NH2,Cg FKS1 S629P; +4 μg/mL KKOO-NH2,0.062 µg/mL
same,MIC of antifungal in combination with KKOO,Cg FKS1 S629P; +4 μg/mL KKOO,0.25 µg/mL
same,MIC of antifungal in combination with KKOO,Cg FKS2 S663P; +0 μg/mL KKOO (control),0.25 µg/mL
same,MIC of antifungal in combination with KKOO-NH2,Cg FKS2 S663P; +0 μg/mL KKOO-NH2 (control),0.25 µg/mL
same,MIC of antifungal in combination with KKOO-NH2,Cg FKS2 S663P; +1 μg/mL KKOO-NH2,0.25 µg/mL
same,MIC of antifungal in combination with KKOO,Cg FKS2 S663P; +1 μg/mL KKOO,0.25 µg/mL
same,MIC of antifungal in combination with KKOO-NH2,Cg FKS2 S663P; +2 μg/mL KKOO-NH2,0.062 µg/mL
same,MIC of antifungal in combination with KKOO,Cg FKS2 S663P; +2 μg/mL KKOO,0.125 µg/mL
same,MIC of antifungal in combination with KKOO-NH2,Cg FKS2 S663P; +4 μg/mL KKOO-NH2,0.016 µg/mL
same,MIC of antifungal in combination with KKOO,Cg FKS2 S663P; +4 μg/mL KKOO,0.031 µg/mL

# — article PMC11555678, “Improved Broad Spectrum Antifungal Drug Synergies with Cryptomycin, a Cdc50-Inspired Antifungal Peptide” (ACS Infectious Diseases, 2024)
